Test [1] addresses JOSD1 (Homo sapiens (Human), UniProt Q15040). As to the kind of experiment: In vitro JOSD1 activity assay (biochemical IC50, purified enzyme). Conditions: read-out: JOSD1 IC50.
Description: In vitro JOSD1 activity assay & Ubiquitin-7-amido-4-methylcoumarin (AMC) assay. In vitro JOSD1 activity assay was carried out with Ubiquitin-AMC assay. […] Recombinant JOSD1 was tested for activity in a Ubiquitin-AMC assay in the presence or absence of inhibitors. […] The reaction was incubated for 6 hours at room temperature prior to the addition of 2 μM Ubiquitin-AMC (Boston Biochem) substrate. The initial rate of the reaction was measured by collecting fluorescence data at one-minute intervals over a 30-minute period using a Clariostar® fluorescence plate reader at excitation and emission wavelengths of 345 and 445 nm, respectively. The calculated initial rate values were plotted against inhibitor concentrations to determine IC50 values.
In vitro JOSD1 activity assay. Recombinant full-length JOSD1 was tested for activity in a Ubiquitin-AMC assay in the presence or absence or inhibitors. For this assay, 10 nM JOSD1 was pre-incubated with different concentrations of inhibitors or DMSO as a control in 50 mM Tris 8.0, 0.5 mM EDTA, 10 mM ovalbumin, 5 mM DTT. The reaction was incubated for 6 h at room temperature prior to the addition of 2 mM Ubiquitin-AMC (Boston Biochem) substrate. The initial rate of the reaction was measured by collecting fluorescence data at one-minute intervals over a 30-minute period using a CLARIOstar® fluorescence plate reader at excitation and emission wavelengths of 345 and 445 nm, respectively. The calculated initial rate values were plotted against inhibitor concentrations to determine IC50 values.
JOSD1 biochemical inhibition was investigated for the analogs shown using the fluorescent substrate ubiquitin-rhodamine against purified enzyme in a continuous kinetic assay.
Test [2] has as its target UCHL1 (Homo sapiens (Human), UniProt P09936). As to the kind of experiment: UCHL1 biochemical inhibition (ubiquitin hydrolase activity, purified enzyme).
Test [3] has as its system JAK2-V617F-positive primary AML patient samples. As to the kind of experiment: AML liquid culture proliferation, primary patient samples. The test is classed as cell-based, human. Conditions: 1 μM. The text has this:
AML liquid culture proliferation and colony assay studies. Frozen vials of bone marrow from AML patients identified as harboring JAK2-V617F were previously Ficoll®-purified to obtain mononuclear cells and thawed prior to use in studies.

UCHL1, sequence (P09936 whole entry, species assumed): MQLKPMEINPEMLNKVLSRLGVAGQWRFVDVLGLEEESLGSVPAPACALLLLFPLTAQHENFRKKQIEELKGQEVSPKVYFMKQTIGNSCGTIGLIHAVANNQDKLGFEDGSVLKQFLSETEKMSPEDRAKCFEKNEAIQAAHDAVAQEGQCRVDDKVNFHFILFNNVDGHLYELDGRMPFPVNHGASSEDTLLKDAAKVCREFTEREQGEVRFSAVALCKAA

For orientation: IC50 means the point on the concentration scale where inhibition reaches its midpoint. For the molecule `C#CCNC(=O)c1ccc(-c2cnc(NC(=O)[C@H]3CCN(C#N)C3)s2)cc1` [Compound 44, (S)-1-cyano-N-(5-(4-(prop-2-yn-1-ylcarbamoyl)phenyl)thiazol-2-yl)pyrrolidine-3-carboxamide], in test [1], the concentration for half-maximal inhibition (IC50) was 8250 nM.

As for `N#CN1CCC[C@H](C(=O)Nc2cn(Cc3ccccc3)cn2)C1` [Compound 42], the half-maximal inhibitory concentration (IC50) turned out to be 1080 nM in test [2] and 6230 nM in test [1].

On to `N#CN1CC[C@H](C(=O)Nc2nc3n(n2)CCN(Cc2ccccc2)C3)C1` [Compound 31], for which the figures for the IC50 in test [2] and in test [1] were 2690 nM and 1400 nM, respectively.

As to `N#CN1CC[C@H](C(=O)Nc2nc3ccc(-c4c[nH]nc4C(F)(F)F)cc3s2)C1` [Compound 22, (S)-1-cyano-N-(6-(3-(trifluoromethyl)-1H-pyrazol-4-yl)benzo[d]thiazol-2-yl)pyrrolidine-3-carboxamide], the half-maximal inhibitory concentration (IC50) in test [1] is 520 nM.

Regarding `N#CN1CC[C@H](C(=O)Nc2ccn(Cc3ccccc3)c2)C1` [Compound 25], the IC50 in test [2] was determined as 8900 nM; in test [1], 931 nM.

For `N#CN1CC[C@H](C(=O)Nc2cn(Cc3ccccc3)cn2)C1` [Compound 32], the half-inhibitory concentration (IC50) in test [2] is 104 nM.

Consider `N#CC[C@H](C1CCCC1)n1cc(-c2ncnc3[nH]ccc23)cn1` [ruxolitinib, reference compound], for which the “efficacy against primary AML cells” value in test [3] is listed as “at best modest efficacy”.

Turning to `N#CN1CCC(C(=O)Nc2nc3ccc(C4CC4)cc3s2)C1` (stereo in doubt) [Compound 8, (R)-1-cyano-N-(6-cyclopropylbenzo[d]thiazol-2-yl)pyrrolidine-3-carboxamide], the half-inhibitory concentration (IC50) was 12 nM in test [2] and 99 nM in test [1].

`N#CN1CC[C@H](NC(=O)c2nc3ccccc3s2)C1` [Compound 20]: the IC50 in test [2] was 2060 nM; in test [1], 430 nM.

`Cc1noc(C)c1-c1ccc2nc(NC(=O)C3CCN(C#N)CC3)sc2c1` [Compound 35, 1-Cyano-N-(6-(3,5-dimethylisoxazol-4-yl)benzo[d]thiazol-2-yl)piperidine-4-carboxamide]: the concentration for half-maximal inhibition (IC50) in test [2] is 420 nM; in test [1], 2770 nM.

Turning to `N#CN1CC[C@H](C(=O)Nc2ccc3c(cnn3Cc3ccccc3)c2)C1` [Compound 10, (S)—N-(1-benzyl-1H-indazol-5-yl)-1-cyanopyrrolidine-3-carboxamide], the IC50 in test [1] was determined as 160 nM.

On to `Cc1noc(C)c1-c1ccc2nc(NC(=O)[C@H]3CCN(C#N)C3)sc2n1` [Compound 19], for which the values for the half-maximal inhibitory concentration (IC50) in test [2] and in test [1] were 90 nM and 420 nM, respectively.

As for `N#CN1CC(C(=O)Nc2nc3ccc(Br)cc3s2)C1` [Compound 33, N-(6-bromobenzo[d]thiazol-2-yl)-1-cyanoazetidine-3-carboxamide], the IC50 came to 1830 nM in test [2] and 1950 nM in test [1].

Regarding `N#CN1CC[C@H](C(=O)Nc2nc3ccccc3[nH]2)C1` [Compound 30, (S)—N-(1H-benzo[d]imidazol-2-yl)-1-cyanopyrrolidine-3-carboxamide], the half-inhibitory concentration (IC50) in test [2] turned out to be 3670 nM; in test [1], 1370 nM.

With `N#CN1CC[C@H](C(=O)Nc2cn(C3CCCN(C(=O)c4ccccc4)C3)cn2)C1` (some centres unmarked) [Compound 38], the IC50 in test [2] stood at 89 nM; in test [1], 4150 nM.

Turning to `N#CN1CC[C@H](C(=O)Nc2cn(-c3ccccc3)cn2)C1` [Compound 28], the IC50 in test [2] was determined as 155 nM; in test [1], 1220 nM.

With `Cc1noc(C)c1-c1ccc2sc(NC(=O)[C@H]3CCN(C#N)C3)nc2c1` [Compound 4, (S)-1-cyano-N-(5-(3,5-dimethylisoxazol-4-yl)benzo[d]thiazol-2-yl)pyrrolidine-3-carboxamide], the IC50 in test [1] is 45 nM.

`N#CN1CC[C@H](C(=O)Nc2nc3ccccc3o2)C1` [Compound 39, (S)—N-(benzo[d]oxazol-2-yl)-1-cyanopyrrolidine-3-carboxamide]: in test [1], the half-inhibitory concentration (IC50) was determined as 4850 nM.

Turning to `N#CN1CC[C@H](C(=O)Nc2nc3ccc(Br)nc3s2)C1` [Compound 15, (S)—N-(5-bromothiazolo[5,4-b]pyridin-2-yl)-1-cyanopyrrolidine-3-carboxamide], the figures for the IC50 in test [2] and in test [1] were 2000 nM and 288 nM, respectively.

In the case of `Cc1noc(C)c1-c1ccc2nc(NC(=O)[C@@H]3CCN(C#N)C3)sc2c1` [Compound 24], the IC50 in test [2] was determined as 1850 nM; in test [1], 690 nM.

`CCn1cc(-c2ccc3nc(NC(=O)[C@@H]4CCN(C#N)C4)sc3c2)cn1` [Compound 6, (R)-1-cyano-N-(6-(1-ethyl-1H-pyrazol-4-yl)benzo[d]thiazol-2-yl)pyrrolidine-3-carboxamide]: the IC50 in test [1] was 82 nM.

Turning to `N#CN1CCC(C(=O)Nc2nc3c(s2)CN(C(=O)c2ccccc2)CC3)C1` (centres unmarked) [Compound 26], the figures for the 50% inhibitory concentration (IC50) in test [2] and in test [1] were 100 nM and 1100 nM, respectively.

`N#CN1CC[C@H](C(=O)Nc2cnn(Cc3ccccc3)c2)C1` [Compound 27, (S)—N-(1-benzyl-1H-pyrazol-4-yl)-1-cyanopyrrolidine-3-carboxamide]: the half-inhibitory concentration (IC50) in test [1] came out at 1100 nM.

`Cc1noc(C)c1-c1ccc2nc(NC(=O)[C@H]3CCN(CC#N)C3)sc2c1` [Compound 40, (S)-1-(cyanomethyl)-N-(6-(3,5-dimethylisoxazol-4-yl)benzo[d]thiazol-2-yl)pyrrolidine-3-carboxamide]: the figures for the IC50 in test [2] and in test [1] were 100000 nM and 5680 nM, respectively.

For `Cc1noc(C)c1-c1ccc2nc(NC(=O)[C@H]3CCN(C#N)C3)sc2c1` [Compound 12], the IC50 stood at 100 nM in test [2] and 244 nM in test [1].

In test [2], `N#CN1CC[C@@H](C(=O)Nc2cn(Cc3ccccc3)cn2)C1` [Compound 29] gave an IC50 of 2000 nM.

`N#CN1CC[C@@H](C(=O)Nc2nc3ccc(-c4ccc(-c5ccccc5)cc4)cc3s2)C1` [Compound 14, (R)—N-(6-([1,1′-biphenyl]-4-yl)benzo[d]thiazol-2-yl)-1-cyanopyrrolidine-3-carboxamide]: the IC50 in test [1] turned out to be 270 nM.

The molecule `Cc1noc(C)c1-c1ccc2nc(NC(=O)C3CN(C#N)C3)sc2c1` [Compound 47, 1-Cyano-N-(6-(3,5-dimethylisoxazol-4-yl)benzo[d]thiazol-2-yl)azetidine-3-carboxamide] had an IC50 in test [2] of 1290 nM.

Regarding `Cc1noc(C)c1-c1cccc2sc(NC(=O)[C@H]3CCN(C#N)C3)nc12` [Compound 5, (S)-1-cyano-N-(4-(3,5-dimethylisoxazol-4-yl)benzo[d]thiazol-2-yl)pyrrolidine-3-carboxamide], in test [1], the IC50 worked out at 74 nM.

As for `N#CN1CC[C@H](C(=O)Nc2nc3n(n2)CCN(C(=O)c2ccccc2)C3)C1` [Compound 36], the IC50 in test [2] worked out at 1340 nM; in test [1] it was 3370 nM.

With `N#CN1CCc2cc(NC(=O)c3nc4ccccc4s3)ccc21` [Compound 41], the IC50 in test [2] stood at 100000 nM; in test [1], 6070 nM.

For `Cc1noc(C)c1-c1ccc2cnc(NC(=O)[C@H]3CCN(C#N)C3)cc2c1` [Compound 21], in test [1], the IC50 was 460 nM.

Regarding `Cc1sc(N(C)C(=O)[C@@H]2CCCN2C#N)nc1-c1cccc(C#N)n1` [Compound 34], the half-inhibitory concentration (IC50) in test [1] worked out at 2130 nM.

For the molecule `N#CN1CC[C@H](C(=O)Nc2nc(-c3ccccc3)cs2)C1` [Compound 11, (S)-1-cyano-N-(4-phenylthiazol-2-yl)pyrrolidine-3-carboxamide], the concentration for half-maximal inhibition (IC50) in test [1] amounted to 160 nM.

For `Cc1cccc2sc(NC(=O)[C@H]3CCN(C#N)C3)nc12` [Compound 18, (S)-1-cyano-N-(4-methylbenzo[d]thiazol-2-yl)pyrrolidine-3-carboxamide], in test [1], the half-maximal inhibitory concentration (IC50) is 380 nM.

Turning to `N#CN1CC(CNC(=O)c2nc3ccccc3s2)C1` [Compound 46, N-((1-cyanoazetidin-3-yl)methyl)benzo[d]thiazole-2-carboxamide], the IC50 was 100000 nM in test [2] and 11300 nM in test [1].

With `Cc1noc(C)c1-c1ccc2nc(NC(=O)c3ccnc(C#N)n3)sc2c1` [Compound 43, 2-Cyano-N-(6-(3,5-dimethyl-1λ^3,2λ^2-isoxazol-4-yl)benzo[d]thiazol-2-yl)pyrimidine-4-carboxamide], in test [1], the half-maximal inhibitory concentration (IC50) was 6420 nM.

The values are drawn from patent US20240335427A1, “SMALL MOLECULE INHIBITION OF DEUBIQUITINATING ENZYME JOSEPHIN DOMAIN CONTAINING 1 (JOSD1) AS A TARGETED THERAPY FOR LEUKEMIAS WITH MUTANT JANUS KINASE 2 (JAK2)” (DANA-FARBER CANCER INSTITUTE, INC., priority 2021, published 2024).
